Measured values from patent US6461610B1, “Methods for modifying cell motility using factor VIIa or inactivated factor VIIa” (Novo Nordisk A/S, priority 1997, dated 2002).

Experiments:
[1] = test system: human foreskin fibroblasts AG1523; experiment: Chemotaxis assay, modified Boyden chamber, PDGF-BB induced migration of fibroblasts; format: cell-based; details: for effect of inhibitor on FVIIa/TF hyperchemotactic response to PDGF-BB: 30 min pretreatment; for migration of fibroblast in response to PDGF without FVIIa: without the ligand FVIIa
Description: Chemotaxis assay. The migration response of fibroblasts was assayed by means of the leading front technique in a modified Boyden chamber, as previously described (Nister et al., Cell 52, 791-799 (1988); Siegbahn et al. J. Clin. Invest. 85, 916-920 (1990)). Micropore filters (pore size 8 μm) were coated with a solution of type-i collagen at room temperature over night. The filters were air dried for 30 minutes immediately before use.
Human foreskin fibroblasts AG1523 were grown to confluence in Eagle's MEM supplemented with 10% FBS. The cells were detached by trypsinization (2.5 mg/ml for 10 minutes at 37° C.) and suspended in Eagle's MEM with 10% FBS. The fibroblasts were incubated for 10 minutes with or without FVIIa or FFR-FVIIa before assay. One hundred microliters of the cell suspension (2×10^5 cells/ml) was added above the filter of the Boyden chamber. PDGF-BB was diluted in assay media (Eagle's MEM with 10% FBS) and added below the filter in the chamber. The cells were incubated for 6 hours at 37° C. in a humidified chamber containing 95% air/5% CO2. FVIIa or FFR-FVIIa were present during the entire experiment. The filters were then removed, fixed in ethanol, stained with Mayer's Hemalun, and mounted. Migration was measured as the distance of the two furthest migrating fibroblast nuclei of one high-power field (12.5×24) in focus. The migration distance in each filter was calculated as the mean of the readings of at least three different parts of the filter. Experiments were performed with two to four separate filters for each concentration of chemoattractant. For each set of experiments, the migration of fibroblasts toward the assay media served as control. In cases when anti-TF monoclonal antibodies or inhibitors to coagulation factors, TAP and Hirudin, were used, cells were preincubated for 10 minutes with these agents, then with or without FVIIa or FFR-FVIIa before the chemotaxis assay was performed. Antibodies, TAP or Hirudin were also present during the entire chemotaxis experiment. In experiments where the effects on the migration response of different inhibitors, LY294002, U73122 or U73343, were tested, cells were preincubated for 30 minutes with the inhibitors at indicated concentrations, and the inhibitors were also present throughout the experiments.
Fibroblasts expressing active TF (FIG. 11) were incubated with 100 nM of FVIIa and seeded in the upper part of the modified Boyden chamber; while media containing 10% FBS and PDGF-BB at different concentrations were added below the […] micropore filter. The migration of the cells under conditions where medium containing 10% FBS without PDGF-BB was added below the filter was used as a measure of random migration, and calculated as 100% migration.

human TF = experiment: SRE/STAT luciferase reporter (KZ136) in BHK cells stably transfected with human TF; format: cell-based; details: 50 μM PD98059 for one hour prior to 100 nM FVIIa
From the text: BHK cells with and without stably transfected TF were stably transfected with KZ136 (reporter construct encoding 2×STAT1,3), 2×(STAT4,5,6) and a serum response element (SRE) upstream to a luciferase reporter gene) were stimulated with FVIIa. Only cells expressing TF responded to FVIIa in a dose dependent manner.
PD98059 is a specific inhibitor of MEK1, a kinase specifically involved in the p44/p42 MAPK cascade.
BHK cells stably transfected with the human TF and the reporter plasmid KZ136 were grown to 90% confluence, starved in DMEM with 0.1% FCS for 16 hours and then stimulated with FVIIa or FVIIai (FIG. 8). […] Also shown in FIG. 8 is an experiment where competition between FVIIa and FVIIai was studied. FVIIai was added to the cells 1 hour prior to stimulation with 20 nM FVIIa. The response induced by 20 nM FVIIa was inhibited 27%, 59%, 77%, and 91% by the addition of 20 nM, 50 nM, 100 nM, and 500 nM FVIIai, respectively.

[2] = target: T1, factor VIIa/tissue factor complex (Homo sapiens, UniProt P08709); experiment: TF-stimulated factor VIIa activity with chromogenic substrate S2288, zinc ion inhibition; format: biochemical; details: 0.2 mM cystin dihydroxamate; 10 nM FVIIa, 50 nM TF1-218
T1 construct: TF1-218 from Dr W. Kisiel, University of New Mexico
T1 sequence (P08709 61-212 limits assumed): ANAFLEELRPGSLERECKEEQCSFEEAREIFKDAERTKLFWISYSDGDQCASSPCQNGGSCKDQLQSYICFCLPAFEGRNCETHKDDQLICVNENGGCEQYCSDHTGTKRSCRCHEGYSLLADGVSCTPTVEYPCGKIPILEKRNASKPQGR
T1 sequence (P08709 213-466 limits assumed): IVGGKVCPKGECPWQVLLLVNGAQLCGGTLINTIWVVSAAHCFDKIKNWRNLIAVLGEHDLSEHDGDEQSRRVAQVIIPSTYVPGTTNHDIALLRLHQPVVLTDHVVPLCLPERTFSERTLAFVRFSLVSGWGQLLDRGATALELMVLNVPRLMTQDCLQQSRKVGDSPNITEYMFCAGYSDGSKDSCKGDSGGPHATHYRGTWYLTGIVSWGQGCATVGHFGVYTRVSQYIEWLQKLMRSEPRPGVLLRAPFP
Description: Factor VIIa activity was measured with the chromogenic substrate S2288 (H-D-Ile-Pro-Arg-p-nitroanilide). The activity of 10 nM FVIIa in the presence of 50 nM TF1-218 (Dr W. Kisiel, University of New Mexico, Albuquerque, N. Mex.) was measured in buffer containing 50 mM TrisCl pH 7.4 0.1 M NaCl, 1 mM CaCl2, 0.05% Tween 20 and 0.4 mM S2288. The activity was measured at room temperature as the change in absorbance at 405 nm.

MAPK p44/42 = experiment: Western blot of phosphorylated MAPK p44/42 in BHK cells stably transfected with human TF; format: cell-based; details: 100 nM for 5 min
Description: In this set of experiments with TF transfected BHK, ECV-304 and MDCK cell lines two antibodies raised against the MAPK were used, one targeting activated as well as non-activated forms of MAPK, and another, targeting only the activated (phosphorylated) form of MAPK.
BHK cells stable transfected with human TF were grown to 90% confluence and starved in DMEM with 0. 1% FCS for 24 hours prior to stimulation with FVIIa. Samples for Western blotting were sampled at 0, 3, 5, 7, 10, 20 and 40 minutes after addition of 100 nM FVIIa. […] Over the next 10 minutes the response declined to reach the background level at about 20 minutes after addition of FVIIa.
In this set of experiments with TF transfected BHK cell lines we used a phospho-specific antibody against phosphorylated (Thr202/Tyr204) p44/42 MAPK and an antibody targeting total p44/42 MAPK (New Englands Biolabs, Beverly, Mass.).
BHK cells stable transfected with human TF were grown to 90% confluence and starved in DMEM with 0.1% FCS for 24 hours prior to stimulation. In FIG. 9A the cells were stimulated with 100 nM FVIIa for 0, 3, 5, 7, 10 and 40 minutes before the cells were lysed and samples for Western blotting were taken.
The results shown in FIG. 9B were obtained when BHK(+TF) cells were exposed to 100 nM FVII, FVIIa, FVIIai, [Ala344]FVII or FXa for 5 min. […]

[3] = 100 nM FVIIa, 0.1 ng/ml PDGF-BB

## COc1ccc2c(c1)CC[C@@H]1[C@@H]2CC[C@]2(C)[C@@H](NCCCCCCN3C(=O)C=CC3=O)CC[C@@H]12 [Example U73122]
[1]; [3]
  inhibitor concentration giving total inhibition of hyperchemotactic response: 1 µM
  effect of inhibitor on FVIIa/TF hyperchemotactic response to PDGF-BB: inhibited

## COc1ccc2c(c1)CC[C@@H]1[C@@H]2CC[C@]2(C)[C@@H](NCCCCCCN3C(=O)CCC3=O)CC[C@@H]12 [Example U73343]
[1]; [3]
  effect of inhibitor on FVIIa/TF hyperchemotactic response to PDGF-BB: No effect

## COc1cccc(-c2cc(=O)c3ccccc3o2)c1N [PD98059]
Human TF
  reporter response to 100 nM FVIIa after inhibitor pre-treatment: did not respond

## N[C@@H](CSSC[C@H](N)C(=O)NO)C(=O)NO [cystindihydroxamate, L-Cystine dihydroxamate]
[2]
  effect of zinc ions to abolish FVIIa-TF complex formation / activity in presence of chelator: profoundly potentiated

## Hirudin
[1]; 5 U/ml Hirudin, 100 nM FVIIa
  effect on FVIIa/TF induced hyperchemotaxis: had no any effect
[1]
  migration of fibroblast in response to PDGF without FVIIa: did not influence

## TAP: Tick anticoagulant peptide, specifically blocks the active site of FXa (YNRLCIKPRDWIDECDSNEGGERAYFRNGKGGCDSFWICPEDHTGADYYSSYRDCFNACI; UniProt P17726 1-60, looked up)
[1]; 0.2-10 μM TAP, 100 nM FVIIa
  effect on enhanced migration response transduced by FVIIa/TF: not blocked
[1]
  migration of fibroblast in response to PDGF without FVIIa: did not influence

B1: [Ala344]FVII: FVII with Ala at catalytic residue 344 (protein, UniProt P08709 1-466, looked up, variant S344A)
chain: MVSQALRLLCLLLGLQGCLAAGGVAKASGGETRDMPWKPGPHRVFVTQEEAHGVLHRRRRANAFLEELRPGSLERECKEEQCSFEEAREIFKDAERTKLFWISYSDGDQCASSPCQNGGSCKDQLQSYICFCLPAFEGRNCETHKDDQLICVNENGGCEQYCSDHTGTKRSCRCHEGYSLLADGVSCTPTVEYPCGKIPILEKRNASKPQGRIVGGKVCPKGECPWQVLLLVNGAQLCGGTLINTIWVVSAAHCFDKIKNWRNLIAVLGEHDLSEHDGDEQSRRVAQVIIPSTYVPGTTNHDIALLRLHQPVVLTDHVVPLCLPERTFSERTLAFVRFSLVSGWGQLLDRGATALELMVLNVPRLMTQDCLQQSRKVGDSPNITEYMFCAGYSDGSKDSCKGDAGGPHATHYRGTWYLTGIVSWGQGCATVGHFGVYTRVSQYIEWLQKLMRSEPRPGVLLRAPFP
MAPK p44/42
  activation (phosphorylation) of p44/42 MAPK: no significant activation
